Source: patent publication US8883827B2, “Azole derivatives as WTN pathway inhibitors” (Oslo University Hospital HF, priority 2009, dated 2014)

Columns and labels:
Format in all cases: cell-based
canonical Wnt signaling [1] = experiment: ST-Luc (SuperTOPFlash) Luciferase assay in HEK293 cells, 30% Wnt3a-CM; settings: Homo sapiens, HEK293; 10 μM compound, 30% Wnt3a-CM, 24 h; relative to DMSO control
Procedure: Inhibition of Wnt signaling by compound No. 1 was quantified in vitro using a Luciferase assay in HEK293 cells transiently transfected with SuperTOPFlash plasmid (ST-Luc) (Veeman M T et al., Curr. Biol. 13: 680-685, 2003) at concentrations from 0.1-10 μM. HEK293 cells were purchased from ATCC (American Type Culture Collection) and maintained according to suppliers recommendations.
Transfection was performed using 80000 HEK293 cells seeded in 48-well plates coated with poly-L lysine. After 24 hours, 0.25 μg total plasmid DNA (0.23 μg SuperTOPFlash+0.02 μg pRL-TK (Renilla)—Promega) and 0.75 μl FuGENE6 (Roche) was combined in a total volume in 25 μl Opti-MEM® (Invitrogen) as described by the manufacturer (Roche). The transfection mixture was added to the plated cells and media were changed after 24 hours.
The Luciferase assay was performed by incubating transfected cells for 24 hours with various concentrations of compound No. 1 in 30% Wnt3a-CM (Wnt3a containing conditioned medium from L Wnt3a cells was harvested as described by ATCC). All treated reporter cells were finally lysed and the firefly luciferase and Renilla activities were measured on a 20/20n Luminometer (Turner BioSystems) as described in the Dual-Glo™ Luciferase Assay System Technical Manual (Promega).
HEK293 cells were transfected, grown and assayed as described in Example 22. 24 hours after seeding, the cells were incubated for an additional 24 hours with 10 μM concentrations of compounds in 30% Wnt3a-CM.
The percent activities shown in Table 3 are calculated relative to DMSO as a control. Some values shown are averages of multiple measurements. Compound XAV939 (Novartis; Huang et al., Nature (2009), 461, pp. 614-20) which is used as a positive control, has an activity of 7%.

canonical Wnt signaling [2] = experiment: IC50 in STF/REN HEK293 cells, 50% Wnt3a-CM; settings: Homo sapiens; STF/REN HEK293, 50% Wnt3a-CM, 24 h
Procedure: IC50 values were calculated using STF/REN HEK293 cells prepared essentially according to Example 22. Briefly, HEK293 cells (80,000 cells per well) were seeded in 48-well plates coated with poly-L lysine. 24 hours after seeding, the cells were incubated for an additional 24 hours with various compound concentrations in 50% Wnt3a-CM. After compound exposure, the cells were lysed and the firefly luciferase and Renilla activities were measured on a 20/20n Luminometer (Turner BioSystems) as described in the Dual-Glo™ Luciferase Assay System Technical Manual (Promega).
XLfit (idbs) was used to determine the IC50 and GI50 values in inhibition experiments. The data were fit to the following formulae:
IC50: Langmuir Binding Isotherm: fit=((A+(B*x))+(((C−B)*(1−exp((−1*D)*x)))/D)) res=(y−fit)

[3] = tested on: SW480 colon carcinoma cells; experiment: MTS cell proliferation assay, Table 5; settings: Homo sapiens; SW480, 10 μM, 72 h; relative to DMSO control; read-out: Cell proliferation (%) for test compounds
Procedure: For the experiment giving the results shown in Table 5, cells (3000 per well) were seeded on 96 well plates (eight replicates per treatment). After 24 hours, and daily thereafter, cell culture medium (including 10% FBS) was mixed with 10 μM compounds or with 0.1% DMSO vehicle and then added to the wells. Sixteen wells of seeded control cells, defining incubation time zero (t0=24 hour after cell seeding), were incubated with 20 μl substrate in 100 μl phenol free D-MEM (Invitrogen) for 2 hours, as described in the CellTiter 96® AQueous Non-Radioactive Cell Proliferation Assay protocol (Promega). The A490 was recorded. The treatment samples were likewise measured after 72 hours.
The quantity of reduced MTS product (as measured by the absorbance at 490 nm) is directly proportional to the number of living cells in the culture and thus allows a direct comparison of cell proliferation in each case. DMSO was used as a control. The following formula was used to determine single well relative A490 sample values: ((Sample A490−Average A490t0)*100)/(Average A490t720.1% DMSO control−Average A490t0)
The proliferation of SW480 cells (in percent) is the A492 value relative to that of the DMSO control.

Row | Structure (SMILES) | activity at 10 µM (canonical Wnt signaling [1]) [%] | IC50 (canonical Wnt signaling [2]) [nM] | activity at 10 µM [3] [%]
1 | Cc1ccc(-c2nnc(CSc3nnc(-c4ccc(Cl)nc4)n3-c3ccccc3Cl)o2)cc1 [Compound 108] | 0.8 | 218 | 42
2 | Clc1cc(Cl)cc(-c2nnc(CSc3nnc(-c4ccncc4)n3-c3ccccc3Cl)o2)c1 [compound 117, 4-(5-((5-(3,5-dichlorophenyl)-1,3,4-oxadiazol-2-yl)methylthio)-4-(2-chlorophenyl)-4H-1,2,4-triazol-3-yl)pyridine] | 9 | 834 | 85
3 | Cc1ccc(-c2nnc(CSc3nnc(-c4ccncc4)n3-c3ccccc3Cl)o2)cn1 [compound 68] | 17 | 381 | 60
4 | Cc1ccc(-c2nnc(CSc3nnc(-c4ccncc4)n3-c3ccccc3Cl)o2)c(Br)c1 [compound 72] | 20 | 551 | 55
5 | Cc1ccc(-c2nnc(CSc3nnc(-c4ccncn4)n3-c3ccccc3Cl)o2)cc1 [compound 105, 4-(5-((5-p-tolyl-1,3,4-oxadiazol-2-yl)methylthio)-4-(2-chlorophenyl)-4H-1,2,4-triazol-3-yl)pyrimidine] | 4.4 | 29 | 54
6 | Clc1ccc(-c2nnc(CSc3nnc(-c4ccncc4)n3-c3ccccc3Cl)o2)c(Cl)c1 [compound 114, 4-(5-((5-(2,4-dichlorophenyl)-1,3,4-oxadiazol-2-yl)methylthio)-4-(2-chlorophenyl)-4H-1,2,4-triazol-3-yl)pyridine] | 4.2 | 795 | 69
7 | Cc1ccc(-c2nnc([C@@H](C)Sc3nnc(-c4ccncc4)n3-c3ccccc3Cl)o2)cc1 [99b] | 12 | 163 | 72
8 | Clc1ccc(-c2nnc(CSc3nnc(-c4ccncc4)n3-c3ccccc3Cl)o2)cc1Cl [compound 130, 4-(5-((5-(3,4-dichlorophenyl)-1,3,4-oxadiazol-2-yl)methylthio)-4-(2-chlorophenyl)-4H-1,2,4-triazol-3-yl)pyridine] | 9 | 151 | 72
9 | Cc1ccc(-c2nnc(CSc3nnc(-c4ccc(F)cc4F)n3-c3ccccc3Cl)o2)cc1 [compound 110, 3-((5-p-tolyl-1,3,4-oxadiazol-2-yl)methylthio)-4-(2-chlorophenyl)-5-(2,4-difluorophenyl)-4H-1,2,4-triazole] | 2 | 872 | 50
10 | Cc1ccc(-c2nnc(CSc3nnc(-c4ccnc(O)c4)n3-c3ccccc3Cl)o2)cc1 [compound 116, 4-(5-((5-p-tolyl-1,3,4-oxadiazol-2-yl)methylthio)-4-(2-chlorophenyl)-4H-1,2,4-triazol-3-yl)pyridin-2-ol] | 7 | 262 | 70
11 | Clc1ccc(-c2nnc(CSc3nnc(-c4ccncc4)n3-c3ccccc3Cl)o2)cc1 [compound 113, 4-(5-((5-(4-chlorophenyl)-1,3,4-oxadiazol-2-yl)methylthio)-4-(2-chlorophenyl)-4H-1,2,4-triazol-3-yl)pyridine] | 4.9 | 59 | 56
12 | Cc1ccc(-c2nnc(CSc3nnc(-c4ccc(Cl)cc4)n3-c3ccccc3Cl)o2)cc1 [compound 111, 3-((5-p-tolyl-1,3,4-oxadiazol-2-yl)methylthio)-4-(2-chlorophenyl)-5-(4-chlorophenyl)-4H-1,2,4-triazole] | 0.7 | – | 44
13 | Cc1ccc(-c2nnc(CSc3nnc(-c4ccc(Cl)cc4Cl)n3-c3ccccc3Cl)o2)cc1 [compound 112, 3-((5-p-tolyl-1,3,4-oxadiazol-2-yl)methylthio)-5-(2,4-dichlorophenyl)-4-(2-chlorophenyl)-4H-1,2,4-triazole] | 0.3 | 688 | 39
